Measurements: ChEMBL document CHEMBL1140432, “Synthesis and biological evaluation of a novel series of "ortho-nitrated" inhibitors of catechol-O-methyltransferase” (J Med Chem, 2005)

How the values were obtained:
[1] = target: T1, Catechol O-methyltransferase (Rattus norvegicus, UniProt P22734); test: Inhibitory activity against COMT in rat liver
T1 sequence (P22734 whole entry): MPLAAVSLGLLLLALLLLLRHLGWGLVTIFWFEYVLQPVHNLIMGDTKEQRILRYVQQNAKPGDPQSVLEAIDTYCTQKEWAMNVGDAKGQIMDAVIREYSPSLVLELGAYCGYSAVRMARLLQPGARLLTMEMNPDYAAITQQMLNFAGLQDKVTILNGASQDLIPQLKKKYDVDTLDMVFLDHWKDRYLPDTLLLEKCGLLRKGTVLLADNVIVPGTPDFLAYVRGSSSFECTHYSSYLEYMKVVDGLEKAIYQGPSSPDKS

[2] = target: T1, Catechol O-methyltransferase; test: Inhibitory activity against COMT in rat brain; assay type: tissue-based

Row | SMILES | IC50 [1] | IC50 [2]
1 | O=C(Cc1ccccc1)c1ccc(O)c(O)c1[N+](=O)[O-] | 130 nM | 3 nM
2 | O=C(CCCCc1ccccc1)c1ccc(O)c(O)c1[N+](=O)[O-] | 110 nM | 4 nM
3 | O=C(CCCc1ccccc1)c1ccc(O)c(O)c1[N+](=O)[O-] | 130 nM | 4 nM
4 | O=C(CCc1ccccc1)c1ccc(O)c(O)c1[N+](=O)[O-] | 2000 nM | 4 nM
